Experimental data from the NIST ThermoML archive (doi:10.1016/j.jct.2009.06.003).
Numbers after ± are expanded uncertainties.

Columns and labels:
[1] = Molar enthalpy of transition or fusion; settings: DSC
[2] = DTA

## CCCC[n+]1ccc(C)cc1.O=S(=O)([N-]S(=O)(=O)C(F)(F)F)C(F)(F)F
[1]; Crystal
  Molar enthalpy of transition or fusion: 5.24 ± 0.158 kcal/mol
[2]; Crystal
  Normal melting temperature: 18.2 ± 0.5 °C
[2]
  Glass transition temperature: -77.2 ± 2 °C

## Cc1cc[n+](C)cc1.Cc1ccc(S(=O)(=O)[O-])cc1 [1,4-dimethylpyridinium 4-methylbenzenesulfonate]
[1]; Crystal
  Molar enthalpy of transition or fusion: 7.38 ± 0.21 kcal/mol
[2]; Crystal
  Normal melting temperature: 151.7 ± 0.5 °C

## CCCC[n+]1cccc(C)c1.Cc1ccc(S(=O)(=O)[O-])cc1 [1-butyl-3-methylpyridinium 4-methylbenzenesulfonate]
[1]; Crystal
  Molar enthalpy of transition or fusion: 0.366 ± 0.0406 kcal/mol
[2]; Crystal
  Normal melting temperature: 50.6 ± 0.5 °C
[2]
  Glass transition temperature: -53.0 ± 2 °C

## CCn1cc[n+](C)c1.N#C[S-] [1-ethyl-3-methylimidazolium thiocyanate]
[2]
  Glass transition temperature: -97.5 ± 2 °C

## CCCCCCn1cc[n+](C)c1.N#C[S-] [1-hexyl-3-methylimidazolium thiocyanate]
[2]
  Glass transition temperature: -83.2 ± 2 °C

## CCCCCC[n+]1cccc(C)c1.Cc1ccc(S(=O)(=O)[O-])cc1 [1-hexyl-3-methylpyridinium 4-methylbenzenesulfonate]
[1]; Crystal
  Molar enthalpy of transition or fusion: 2.41 ± 0.0884 kcal/mol
[2]; Crystal
  Normal melting temperature: 56.2 ± 0.5 °C
[2]
  Glass transition temperature: -39 ± 2 °C

## Cc1cc(C)[nH+]c(C)c1.Cc1ccc(S(=O)(=O)[O-])cc1 [2,4,6-trimethylpyridinium 4-methylbenzenesulfonate]
[1]; Crystal
  Molar enthalpy of transition or fusion: 5.47 ± 0.163 kcal/mol
[2]; Crystal
  Normal melting temperature: 130.6 ± 0.5 °C
[2]
  Glass transition temperature: -7.8 ± 2 °C

## CC[S+](CC)CC.O=S(=O)([N-]S(=O)(=O)C(F)(F)F)C(F)(F)F [triethylsulfonium bis((trifluoromethyl)sulfonyl)imide]
[1]; Crystal 1
  Molar enthalpy of transition or fusion: 1.67 ± 0.0669 kcal/mol
[1]; Crystal 2
  Molar enthalpy of transition or fusion: 2.25 ± 0.0813 kcal/mol
[2]; Crystal 1
  Normal melting temperature: -10.3 ± 0.5 °C
[2]; Crystal 2
  Triple point temperature: 241.1 ± 2 K
[2]
  Glass transition temperature: -73.8 ± 2 °C
